Measurements: patent US20260159486A1, “BENZO[H]QUINAZOLINE-4-AMINE DERIVATIVES FOR THE TREATMENT OF CANCER” (Redona Therapeutics, Inc., priority 2021, published 2026)
pIC50: −log10 of the molar value.

How the values were obtained:
MDA-MB-231 cells = assay: MDA-MB-231 proliferation assay; assay type: cell-based; details: Homo sapiens, MDA-MB-231, 72 h, YO-PRO-1 Iodide readout
Excerpt: (§1) MDA-MB-231 and CAL-51 Proliferation Assay
(§2) Cells (MDA-MB-231 (American Type Culture Collection (ATCC), #HTB-26) or CAL-51 (Deutsche Sammlung von Mikroorganismen und Zellkulturen (DSMZ), #ACC302) as applicable) were cultivated in DMEM High Glucose (4.5 g/L) with L-Glutamine (BioConcept, cat. no. 1-26F03-I) supplemented with 1% Na-pyruvate (Sigma, cat. no. S8636), 1% Penicillin-Streptomycin (BioConcept, cat. no. 4-01F00H), and 10% FBS (Sigma, cat. no. F9665) using standard techniques. Cells were seeded in black, clear-bottom 384 well plates for tissue culture (Greiner Bio-One, cat. no. 781091) at a density of 750 cells per well in 20 μL medium and the plates were incubated overnight at 37° C. with 5% CO2 prior to treatment. Experimental compounds were serially diluted in DMSO to 200× the desired final concentrations. The solutions were then diluted 1:40 with culture medium and 5 μL aliquots were mixed into the wells containing the cells. The final concentration of DMSO was 0.5%. The plates were incubated for 72 hours and cell numbers were then measured using YO-PRO™-1 Iodide (ThermoFisher Scientific, cat. no. Y3603) essentially as recommended by the manufacturer. Briefly, a 12.5 μM solution of YO-PRO™_1 Iodide in 5× YO—PRO buffer (100 mM Na-citrate, 130 mM NaCl, pH 4) was combined with an equal volume of lysis buffer (0.6% NP-40, 30 mM EDTA, 30 mM EGTA, 0.33× YO—PRO buffer) and 12.5 μL of the mixture were dispensed into each well. The plates were incubated at room temperature in the dark for 30 minutes. Fluorescence intensity signals were then measured on a Synergy 4 reader (BioTek) using 485/20 nm and 530/25 nm filters for the excitation and emission, respectively. Relative proliferation values were calculated by normalizing the raw data using DMSO-treated cells (100% proliferation) and the signals obtained from cells that were evaluated at the time of compound addition (0% proliferation). The concentration-response data were fitted to a sigmoidal 4-parameter logistic model with the maximum constrained to 100%. GI50 values were calculated from the curves as the compound concentrations reducing proliferation to 50%.

recombinant human CLK3 = molecular target: T1, recombinant human CLK3 (Homo sapiens, UniProt P49761); assay: CLK3 kinase assay (LANCE Ultra); assay type: biochemical; details: CLK3 0.5 nM, ATP 300 μM, 3 hours at 30° C.
T1 construct: purchased Thermo Fisher Scientific PV3826
Description: CLK3 kinase activity was measured using the LANCE® Ultra technology (PerkinElmer) essentially as recommended by the supplier. Briefly, 2.5 μL of test sample at 4× the desired final concentration in 4% DMSO were dispensed into white, low volume, round bottom, 384 well plates (Corning, cat. no. 4512). 5 μL of a mixture containing recombinant human CLK3 (Thermo Fisher Scientific, cat. no. PV3826) and the labeled peptide substrate ULight™-CREBtide (PerkinElmer, cat. no. TRF0107) prepared in 1.33× kinase buffer (Thermo Fisher Scientific, cat. no. PV3189) were then added. Finally, the reactions were started by adding 2.5 μL of a 4× solution of ATP in kinase buffer. The plates were sealed with adhesive foils and incubated for 3 hours at 30° C. in the dark. The final concentrations of CLK3, ULight™-CREBtide, and ATP were 0.5 nM, 50 nM, and 300 μM, respectively. 5 μL of 40 mM EDTA were then added to terminate the reactions. The Eu-anti-phospho-CREB antibody (PerkinElmer, cat. no. TRF0200) diluted in LANCE® detection buffer (PerkinElmer, cat. no. CR97) was then added to a final concentration of 2 nM and the reactions were incubated for 1 hour at room temperature in the dark. The signals were measured using a Synergy 4 reader (BioTek) with a 320/80 nm filter for the excitation and 620/10 nm and 665/8 nm filters for the donor and acceptor emission, respectively. Relative inhibition values were calculated by normalizing the raw data using solvent control wells (0% inhibition) and wells that received no ATP (100% inhibition). IC50 values were calculated by fitting the concentration-response data to a sigmoidal 4-parameter logistic model. IC50 values for CLK3 are determined from duplicate measurements at ten different concentrations (serial 1:3 dilutions).

CAL-51 cells = assay: CAL-51 proliferation assay; assay type: cell-based; details: Homo sapiens, CAL-51, 72 h, YO-PRO-1 Iodide readout
Excerpt: as §1, §2

T1 sequence (P49761 whole entry): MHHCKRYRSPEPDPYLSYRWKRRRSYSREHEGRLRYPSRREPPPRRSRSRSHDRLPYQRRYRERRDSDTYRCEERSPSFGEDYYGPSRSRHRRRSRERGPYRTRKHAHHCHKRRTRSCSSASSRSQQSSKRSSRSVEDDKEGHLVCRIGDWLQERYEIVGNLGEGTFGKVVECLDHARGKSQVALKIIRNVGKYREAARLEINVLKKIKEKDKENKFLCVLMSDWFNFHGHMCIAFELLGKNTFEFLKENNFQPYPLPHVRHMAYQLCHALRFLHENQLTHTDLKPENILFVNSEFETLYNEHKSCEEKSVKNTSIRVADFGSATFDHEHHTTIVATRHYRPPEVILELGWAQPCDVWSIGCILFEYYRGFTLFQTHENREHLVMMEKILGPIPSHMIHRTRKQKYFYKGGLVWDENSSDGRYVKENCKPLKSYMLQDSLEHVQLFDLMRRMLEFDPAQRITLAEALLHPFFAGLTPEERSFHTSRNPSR

Row | Structure (SMILES) | GI50 (MDA-MB-231 cells) [nM] | pIC50 (recombinant human CLK3) | GI50 (CAL-51 cells) [nM]
1 | CN(CCS(C)(=O)=O)c1c(O[C@H]2CC[C@@H](N)CC2)ccc2c1CC(C)(C)c1c(N)ncnc1-2 [Example 32, 8-(cis-4-aminocyclohexoxy)-N7,5,5-trimethyl-N7-(2-methylsulfonylethyl)-6H-benzo[h]quinazoline-4,7-diamine] | > 2000 | > 7.52 | > 2000
2 | CC1(C)Cc2c(ccc(O[C@H]3CC[C@H](N)CC3)c2N2CCC(C#N)C2)-c2ncnc(N)c21 (stereo partly drawn) [Example 66, 1-[4-amino-8-(trans-4-aminocyclohexoxy)-5,5-dimethyl-6H-benzo[h]quinazolin-7-yl]pyrrolidine-3-carbonitrile] | < 100 | > 7.52 | < 100
3 | CC1(C)Cc2c(ccc(O[C@H]3CC[C@H](N)CC3)c2CCCC#N)-c2ncnc(N)c21 [Example 81, 4-[4-amino-8-(trans-4-aminocyclohexoxy)-5,5-dimethyl-6H-benzo[h]quinazolin-7-yl]butanenitrile] | 100 to 2000 | > 7.52 | < 100
4 | CC1(C)Cc2c(ccc(O[C@H]3CC[C@H](N)CC3)c2NCCO)-c2ncnc(N)c21 [Example 14, 2-[[4-amino-8-(trans-4-aminocyclohexoxy)-5,5-dimethyl-6H-benzo[h]quinazolin-7-yl]amino]ethanol] | 100 to 2000 | > 7.52 | 100 to 2000
5 | COCCN(C)c1c(O[C@H]2CC[C@@H](N)CC2)ccc2c1CC1(CCCC1)c1c(N)ncnc1-2 [Example 75, 8-(cis-4-aminocyclohexoxy)-N7-(2-methoxyethyl)-N7-methyl-spiro[6H-benzo[h]quinazoline-5,1′-cyclopentane]-4,7-diamine] | 100 to 2000 | > 7.52 | < 100
6 | CN(CCC(F)(F)F)c1c(O[C@H]2CC[C@H](N)CC2)ccc2c1CC(C)(C)c1c(N)ncnc1-2 [Example 43, 8-(trans-4-aminocyclohexoxy)-N7,5,5-trimethyl-N7-(3,3,3-trifluoropropyl)-6H-benzo[h]quinazoline-4,7-diamine] | 100 to 2000 | 7.00 to 7.52 | 100 to 2000
7 | CC1(C)Cc2c(ccc(O[C@H]3CC[C@H](N)CC3)c2C(=O)NCC#N)-c2ncnc(N)c21 [Example 90, 4-amino-8-(trans-4-aminocyclohexoxy)-N-(cyanomethyl)-5,5-dimethyl-6H-benzo[h]quinazoline-7-carboxamide] | 100 to 2000 | > 7.52 | 100 to 2000
8 | CN(CCC#N)c1c(OC2CCCNCC2)ccc2c1CC(C)(C)c1c(N)ncnc1-2 (stereo not drawn) [Example 78, 3-[[4-amino-8-(azepan-4-yloxy)-5,5-dimethyl-6H-benzo[h]quinazolin-7-yl]-methyl-amino]propanenitrile] | < 100 | > 7.52 | < 100
9 | C#CCCN(C)c1c(O[C@H]2CC[C@H](N)CC2)ccc2c1CC(C)(C)c1c(N)ncnc1-2 [Example 54, 8-(trans-4-aminocyclohexoxy)-N7-but-3-ynyl-N7,5,5-trimethyl-6H-benzo[h]quinazoline-4,7-diamine] | < 100 | > 7.52 | < 100
10 | COc1ccc2c(c1N1CC(CO)C1)CC(C)(C)c1c(N)ncnc1-2 [Example 28, [1-(4-amino-8-methoxy-5,5-dimethyl-6H-benzo[h]quinazolin-7-yl)azetidin-3-yl]methanol] | 100 to 2000 | 6.00 to 7.00 | 100 to 2000
11 | CC(C)N(C)c1c(O[C@H]2CC[C@H](N)CC2)ccc2c1CC(C)(C)c1c(N)ncnc1-2 [Example 102, 8-(trans-4-aminocyclohexoxy)-N7-isopropyl-N7,5,5-trimethyl-6H-benzo[h]quinazoline-4,7-diamine] | 100 to 2000 | > 7.52 | < 100
12 | CC1(C)C(=O)c2c(ccc(O[C@H]3CC[C@H](N)CC3)c2N)-c2ncnc(N)c21 [Example 34, 4,7-diamino-8-(trans-4-aminocyclohexoxy)-5,5-dimethyl-benzo[h]quinazolin-6-one] | 100 to 2000 | 6.00 to 7.00 | 100 to 2000
13 | CCN(C)c1c(O[C@H]2CC[C@H](N)CC2)ccc2c1CC(C)(C)c1c(N)ncnc1-2 [Example 67, 8-(trans-4-aminocyclohexoxy)-N7-ethyl-N7,5,5-trimethyl-6H-benzo[h]quinazoline-4,7-diamine] | < 100 | > 7.52 | < 100
14 | CN(CCO)c1c(O[C@H]2CC[C@H](N)CC2)ccc2c1CC1(CCCC1)c1c(N)ncnc1-2 [Example 59, 2-[[4-amino-8-(4-trans-aminocyclohexoxy)spiro[6H-benzo[h]quinazoline-5,1′-cyclopentane]-7-yl]-methyl-amino]ethanol] | 100 to 2000 | > 7.52 | < 100
15 | CCCOc1c(O[C@H]2CC[C@H](N)CC2)ccc2c1CC(C)(C)c1c(N)ncnc1-2 [Example 19, 8-(trans-4-aminocyclohexoxy)-5,5-dimethyl-7-propoxy-6H-benzo[h]quinazolin-4-amine] | 100 to 2000 | 7.00 to 7.52 | 100 to 2000
16 | COc1ccc2c(c1NCc1nnc(C(C)F)o1)CC(C)(C)c1c(N)ncnc1-2 (stereo not drawn) [Example 122, N7-[[5-(1-fluoroethyl)-1,3,4-oxadiazol-2-yl]methyl]-8-methoxy-5,5-dimethyl-6H-benzo[h]quinazoline-4,7-diamine] | > 2000 | 6.00 to 7.00 | 100 to 2000
17 | CC1(C)Cc2c(ccc(O[C@H]3CC[C@H](N)CC3)c2NS(=O)(=O)CCO)-c2ncnc(N)c21 [Example 42, N-[4-amino-8-(trans-4-aminocyclohexoxy)-5,5-dimethyl-6H-benzo[h]quinazolin-7-yl]-2-hydroxy-ethanesulfonamide] | > 2000 | 7.00 to 7.52 | > 2000
18 | CN(c1c(O[C@H]2CC[C@H](N)CC2)ccc2c1CC(C)(C)c1c(N)ncnc1-2)S(=O)(=O)CCC(=O)O [Example 69, 3-[[4-amino-8-(trans-4-aminocyclohexoxy)-5,5-dimethyl-6H-benzo[h]quinazolin-7-yl]-methyl-sulfamoyl]propanoic acid] | > 2000 | > 7.52 | > 2000
19 | COCCS(=O)(=O)N(C)c1c(O[C@H]2CC[C@H](N)CC2)ccc2c1CC(C)(C)c1c(N)ncnc1-2 [Example 64, N-[4-amino-8-(trans-4-aminocyclohexoxy)-5,5-dimethyl-6H-benzo[h]quinazolin-7-yl]-2-methoxy-N-methyl-ethanesulfonamide] | < 100 | > 7.52 | < 100
20 | CC1(C)Cc2c(ccc(O[C@H]3CC[C@H](N)CC3)c2NCC#N)-c2ncnc(N)c21 [Example 35, 2-[[4-amino-8-(trans-4-aminocyclohexoxy)-5,5-dimethyl-6H-benzo[h]quinazolin-7-yl]amino]acetonitrile] | 100 to 2000 | 7.00 to 7.52 | 100 to 2000
21 | CNc1c(O[C@H]2CC[C@H](N)CC2)ccc2c1CC(C)(C)c1c(N)ncnc1-2 [Example 68, 8-(trans-4-aminocyclohexoxy)-N7,5,5-trimethyl-6H-benzo[h]quinazoline-4,7-diamine] | 100 to 2000 | 7.00 to 7.52 | < 100
